Data: patent US20110245242A1, “Heterocyclically Substituted Anilinopyrimides” (Bayer CropScience AG, priority 2008, published 2011)

Key:
[1] = log P by HPLC on reversed-phase columns (C 18), method [a], acidic range pH 2.3; format: physicochemical; conditions: for chromatographic logP: pH 2.3, log P (pH 2.3)
Method: The log P values were measured in accordance with EEC Directive 79/831 Annex V.A8 by HPLC (High Performance Liquid Chromatography) on reversed-phase columns (C 18) using the methods below: [a] The determination was carried out in the acidic range at pH 2.3 using the mobile phases 0.1% aqueous phosphoric acid and acetronitrile linear gradient from 10% acetonitrile to 95% acetronitrile.

physchem = format: physicochemical; conditions: pH 7.8
Method: The log P values were measured in accordance with EEC Directive 79/831 Annex V.A8 by HPLC (High Performance Liquid Chromatography) on reversed-phase columns (C 18) using the methods below: [c] The LC-MS determination in the neutral range was carried out at pH 7.8 using the mobile phases 0.001 molar aqueous ammonium bicarbonate solution and acetonitrile linear gradient from 10% acetonitrile to 95% acetonitrile.

Fusarium proliferatum = assay: Production of Fumonisin FB1 by Fusarium proliferatum (microtitre plates; FB1 by HPLC-MS/MS, growth by OD620); format: cell-based; conditions: for pI50 Fum: FB1 concentration in liquid medium after 6 days at 20° C., HPLC-MS/MS; for pI50 growth: OD620 at the beginning and after 6 days
[2] = log P by LC-MS, method [b], acid range pH 2.7; format: physicochemical; conditions: pH 2.7
Method: The log P values were measured in accordance with EEC Directive 79/831 Annex V.A8 by HPLC (High Performance Liquid Chromatography) on reversed-phase columns (C 18) using the methods below:
[b] The LC-MS determination in the acid range was carried out at pH 2.7 using the mobile phases 0.1% aqueous formic acid and acetonitrile (contains 0.1% formic acid)
linear gradient from 10% acetonitrile to 95% acetonitrile.

| SMILES | log p ([1]; pH 2.3) | log p (physchem) | log p [2] | other results |
| --- | --- | --- | --- | --- |
| COC(=O)C1CC(=O)N(c2cccc(Nc3ncc(Cl)c(NC4CC4)n3)c2)C1 (stereo not shown) [Example 137] | – | – | 1.52[b] | pI50 Fum (Fusarium proliferatum): 5.7; pI50 growth (Fusarium proliferatum): 5.1 |
| CC1CC(=O)N(c2cccc(Nc3ncc(Br)c(NC4CCC4)n3)c2)C1=O (stereo not shown) [Example 73] | – | – | 1.9[b] | pI50 Fum (Fusarium proliferatum): 6.4; pI50 growth (Fusarium proliferatum): 5.8 |
| CCOC(=O)N(c1cccc(N2CCCC2=O)c1)c1ncc(Cl)c(NC2CC2)n1 [Example 330, Ethyl [5-chloro-4-(cyclopropylamino)pyrimidin-2-yl][3-(2-oxopyrrolidin-1-yl)phenyl]-carbamate] | – | – | – | chromatographic logP [1]: 2.04; chromatographic logP [2]: 2.04; chromatographic logP (physchem): 2.24 |
| CC1COC(=O)N1c1cccc(Nc2ncc(Cl)c(NCC(F)(F)F)n2)c1 (stereo not shown) [Example 169] | – | – | 2.16[b] | pI50 Fum (Fusarium proliferatum): 5.5; pI50 growth (Fusarium proliferatum): 5.1 |
| CC1CCN(Cc2cccc(Nc3ncc(Cl)c(NC4CC4)n3)c2)C1=O (stereo not shown) [Example 234] | 1.7[a]; | 2.57[c] | – | – |
| COC1=CC(=O)N(c2cccc(Nc3ncc(Cl)c(NC4CC4)n3)c2)C1 [Example 237] | 1.55[a]; | 2.45[c] | – | – |
| CC1(C)CC(=O)N(c2cccc(Nc3ncc(Br)c(NC4CC4)n3)c2)C1=O [Example 28] | – | – | 1.99[b] | pI50 Fum (Fusarium proliferatum): 6.2 |
| CC(C)[C@H]1COC(=O)N1c1cccc(Nc2ncc(Cl)c(NC3CC3)n2)c1 [Example 76] | – | – | 2.47[b] | pI50 Fum (Fusarium proliferatum): 6.2; pI50 growth (Fusarium proliferatum): 5.6 |
| CC1(C)CC(=O)N(c2cccc(Nc3ncc(Cl)c(NC4CC4(C)C)n3)c2)C1=O (stereo not shown) [Example 122] | 2.42[a]; | 3.28[c]; | 2.42[b] | – |
| CC1(C)CC(=O)N(c2cccc(Nc3ncc(C(F)(F)F)c(NCC4CC4)n3)c2)C1=O [Example 196] | – | – | 2.81[b] | pI50 Fum (Fusarium proliferatum): 5.3; pI50 growth (Fusarium proliferatum): 4.8 |
| O=C1CCC(CO)N1c1cccc(Nc2ncc(Br)c(NC3CC3)n2)c1 (stereo not shown) [Example 79] | 1.04[a]; | 1.65[c] | – | – |
| CC(C)OC(=O)N(c1cccc(N2CCCC2=O)c1)c1ncc(Cl)c(NC2CC2)n1 [Example 329, Isopropyl [5-chloro-4-(cyclopropylamino)pyrimidin-2-yl][3-(2-oxopyrrolidin-1-yl)phenyl]carbamate] | – | – | – | chromatographic logP [1]: 2.24; chromatographic logP [2]: 2.24; chromatographic logP (physchem): 2.55 |
| CC1COC(=O)N1c1cccc(Nc2ncc(C(F)(F)F)c(NC3CC3)n2)c1 (stereo not shown) [Example 19] | – | – | 2.4[b] | pI50 Fum (Fusarium proliferatum): 6.2 |
| CC1CC1Nc1nc(Nc2cccc(N3CCCC3=O)c2)ncc1C(F)(F)F (stereo not shown) [Example 219] | – | – | 2.79[b] | pI50 Fum (Fusarium proliferatum): 6.3; pI50 growth (Fusarium proliferatum): 5.5 |
| CC(Nc1nc(Nc2cccc(N3CCCC3=O)c2)ncc1C(F)(F)F)C(F)(F)F (stereo not shown) [Example 220, 1-[3-({5-(Trifluoromethyl)-4-[(1,1,1-trifluoropropan-2-yl)amino]pyrimidin-2-yl}amino)phenyl]-pyrrolidin-2-one] | – | – | – | chromatographic logP [1]: 3.08; chromatographic logP [2]: 3.08; chromatographic logP (physchem): 3.05 |
| O=C1OCCN1c1ccc(Nc2ncc(I)c(NC3CC3)n2)cc1 [Example 11] | 1.41[a]; | 2.48[c] | – | – |
| O=C1OCCN1c1cccc(Nc2ncc(C(F)(F)F)c(NC3CCC3)n2)c1 [Example 194] | – | – | 2.58[b] | pI50 Fum (Fusarium proliferatum): 6.1; pI50 growth (Fusarium proliferatum): 5.4 |
| CC1CC(=O)N(c2cccc(Nc3ncc(Cl)c(NC4CC4)n3)c2)C1=O (stereo not shown) [Example 65] | – | – | 1.59[b] | pI50 Fum (Fusarium proliferatum): 6.2; pI50 growth (Fusarium proliferatum): 5.7 |
| CC1CC(C)N(c2cccc(Nc3ncc(Cl)c(N(C)C4CC4)n3)c2)C1=O (stereo not shown) [Example 178] | – | – | 2.61[b] | pI50 Fum (Fusarium proliferatum): 5.7; pI50 growth (Fusarium proliferatum): 4.9 |

| SMILES | log p ([1]; pH 2.3) | log p (physchem) | log p [2] | other results |
| --- | --- | --- | --- | --- |
| C=CCNc1nc(Nc2ccc(N3CCOC3=O)cc2)ncc1Cl [Example 15] | 1.25[a]; | 2.25[c] | – | – |
| CC1CCN(Cc2cccc(Nc3ncc(Cl)c(N(C)C4CC4)n3)c2)C1=O (stereo not shown) [Example 233] | 2.5[a]; | 3.25[c] | – | – |
| CNc1nc(Nc2ccc(N3CCOC3=O)cc2)ncc1Cl [Example 61] | 0.73[a]; | 1.82[c] | – | – |
| O=C1CCCN1c1cc(Nc2ncc(Cl)c(NC3CC3)n2)ccc1OC(F)(F)F [Example 20] | 2.34[a]; | 2.91[c] | – | – |
| CC(C)Nc1nc(Nc2cccc(N3CCOC3=O)c2)ncc1Cl [Example 138] | – | – | 1.56[b] | pI50 Fum (Fusarium proliferatum): 5; pI50 growth (Fusarium proliferatum): 4.9 |
| COCC(C)Nc1nc(Nc2cccc(N3CCCC3=O)c2)ncc1C(F)(F)F (stereo not shown) [Example 6] | 2.4[a]; | 2.79[c] | – | – |
| CC(C)Nc1nc(Nc2cccc(N3C(=O)OCC3C)c2)ncc1Cl (stereo not shown) [Example 139] | – | – | 1.64[b] | pI50 Fum (Fusarium proliferatum): 5; pI50 growth (Fusarium proliferatum): 5 |
| CC(C)Nc1nc(Nc2cccc(N3C(=O)CC(C)(C)C3=O)c2)ncc1Cl [Example 140] | – | – | 1.81[b] | pI50 Fum (Fusarium proliferatum): 5.7; pI50 growth (Fusarium proliferatum): 5.2 |
| CC1CC(=O)N(c2cccc(Nc3ncc(Cl)c(NC4CC4(C)C)n3)c2)C1=O (stereo not shown) [Example 121] | 2.13[a]; | 2.92[c]; | 2.13[b] | – |
| CC(C)Nc1nc(Nc2cccc(N3CCOC3=O)c2)ncc1Br [Example 146] | – | – | 1.63[b] | pI50 growth (Fusarium proliferatum): 5 |
| CSCC(C)(C)Nc1nc(Nc2cccc(N3CCCC3=O)c2)ncc1Cl [Example 41] | 2.17[a]; | 3.26[c] | – | – |
| O=C1CCCN1c1ccc(Nc2ncc(Cl)c(NC3COC3)n2)cc1 [Example 18] | 0.41[a]; | 0.9[c] | – | – |
| CC1CC1Nc1nc(Nc2cccc(N3CCCC3=O)c2)ncc1Cl (stereo not shown) [Example 200] | – | – | 1.72[b] | pI50 Fum (Fusarium proliferatum): 4.8; pI50 growth (Fusarium proliferatum): 4.7 |
| C=CCNc1nc(Nc2cccc(N3CCCC3=O)c2)ncc1Cl [Example 14] | 1.45[a]; | 2.37[c] | – | – |
| O=C1CCCN1c1cc(Nc2ncc(Cl)c(NCC(F)F)n2)ccc1F [Example 51] | 1.72[a]; | 2.15[c] | – | – |
| CCC1CC(C)C(=O)N1c1cccc(Nc2ncc(Br)c(NC3CC3)n2)c1 (stereo not shown) [Example 208] | – | 3.31[c]; | 2.32[b] | – |
| O=C1CCCN1c1cccc(Nc2ncc(Cl)c(NCC(F)(F)F)n2)c1 [Example 10] | 2.08[a]; | 2.42[c] | – | – |
| O=C1CCCN1c1cccc(Nc2ncc(Cl)c(NCC(F)F)n2)c1 [Example 44] | 1.64[a]; | 2.19[c] | – | – |

Continued, in another order:

| log p ([1]; pH 2.3) | log p (physchem) | SMILES | log p [2] | other results |
| --- | --- | --- | --- | --- |
| 1.14[a]; | 1.84[c] | O=C1C(O)CCN1c1cccc(Nc2ncc(Cl)c(NC3CC3)n2)c1 (stereo not shown) [Example 78] | – | – |
| – | 2.38[c]; | CC(=O)N(c1cccc(N2CCCC2=O)c1)c1ncc(Cl)c(NCC2CC2)n1 [Example 184] | 2.35[b] | log P (pH 2.3) ([1]; pH 2.3): 2.35 |
| 1.52[a]; | 2.64[c] | CC(C)Nc1nc(Nc2cccc(N3CCCC3=O)c2)ncc1Cl [Example 22] | – | – |
| 0.96[a]; | 1.6[c] | O=C1CCC(CO)N1c1cccc(Nc2ncc(Cl)c(NC3CC3)n2)c1 (stereo not shown) [Example 136] | – | – |
| 1.93[a]; | 3.06[c]; | CN1CCN(c2cccc(Nc3ncc(Cl)c(NC4CC4(C)C)n3)c2)C1=O (stereo not shown) [Example 313] | 1.93[b] | – |
| 1.96[a]; | 2.34[c] | O=C1CCCN1c1ccc(Nc2ncc(Cl)c(NCC(F)(F)F)n2)cc1 [Example 9] | – | – |
| 1.98[a]; | 2.99[c]; | CC1(C)CC1Nc1nc(Nc2cccc(N3CCCC3=O)c2)ncc1Cl (stereo not shown) [Example 127] | 1.98[b] | – |
| 1.38[a]; | 2.29[c] | C=CCNc1nc(Nc2ccc(N3CCCC3=O)cc2)ncc1Cl [Example 13] | – | – |
| 0.98[a]; | 1.68[c] | O=C1C[C@@H](O)CN1c1cccc(Nc2ncc(Cl)c(NC3CC3)n2)c1 [Example 108] | – | – |
| 2.15[a]; | 3.12[c]; | CC1COC(=O)N1c1cccc(Nc2ncc(Cl)c(NC3CC3(C)C)n2)c1 (stereo not shown) [Example 120] | 2.15[b] | – |
| 0.26[a]; | 0.76[c] | O=C1OCCN1c1ccc(Nc2ncc(Cl)c(NC3COC3)n2)cc1 [Example 17] | – | – |
| 1.44[a]; | 2.56[c] | CC(C)Nc1nc(Nc2ccc(N3CCCC3=O)cc2)ncc1Cl [Example 21] | – | – |
| 1.54[a]; | 2.06[c] | CN(c1nc(Nc2cccc(N3C(=O)CCC3CO)c2)ncc1Cl)C1CC1 (stereo not shown) [Example 82] | – | – |
| 1.31[a]; | 2.32[c] | O=C1CCCN1c1cccc(Nc2ncc(F)c(NC3CCC3)n2)c1 [Example 43] | – | – |
| 1.77[a]; | 2.65[c] | COC1=CC(=O)N(c2cccc(Nc3ncc(Br)c(NC4CC4)n3)c2)C1 [Example 238] | – | – |
| 2.1[a]; | 3.18[c] | CC(C)N(C)c1nc(Nc2cccc(N3CCCC3=O)c2)ncc1Cl [Example 77] | – | – |
| – | 2.82[c]; | CCOC(=O)[C@@H]1CCC(=O)N1c1cccc(Nc2ncc(C(F)(F)F)c(NC3CC3)n2)c1 [Example 193] | 2.56[b] | – |
